The data set can be described thus: gradient 5% acetonitrile 3 min, to 50% in 2 min, to 85% in 15 min, held 3 min, 100 µL/min. The note with it: column: Zorbax Extend-C18 2.1 x 50 mm; eluents: water / acetonitrile, 0.1% formic acid. In outline: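 Using water and acetonitrile that each contained 0.1% formic acid, mixtures of ~100 pure standards were separated at 100 μL/min on a Zorbax Extend-C18 column (2.1 × 50 mm, 1.8 μm). The HPLC fed a quadrupole time-of-flight mass spectrometer working in positive and negative ionization mode, with dead and dwell volumes of 40 μL and 900 μL. Data were acquired over 3 months. Retention time was read from computationally picked adduct peaks after manual inspection of each.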
With `Cc1ccc(CN2CC(Cn3c(C)cnc3-c3ccncc3)C2)o1`, the RP-LC retention time was 611 s.

With `CCCC(=O)NC(C)c1nc(-c2ccccc2)no1` (centres undefined), the RP-LC retention time came out at 782 s.

The molecule `CCn1c(=O)c2ccccc2n(Cc2nc(-c3cc(OC)c(OC)c(OC)c3)no2)c1=O` had an RP-LC retention time of 936 s.

With `COc1ccc(OC)c(CNC(=O)CCC(=O)N2CCCn3nc(C)cc32)c1`, the RP-LC retention time was 654 s.

As to `COc1ccc(S(=O)(=O)N2CCC(CCOc3ccccc3F)C2)cc1` (centres undefined), the RP-LC retention time is 1060 s.

`CC(C)CCNC(=O)C1(C)Cn2nc(C(=O)NCCc3c[nH]c4ccccc34)cc2C(=O)N1C` (centres undefined) displayed an RP-LC retention time of 786 s.

`CSc1ccc(CNC(=O)C2CCCN(c3ccc(=O)n(-c4cccc(F)c4)n3)C2)cc1` (centres undefined) came in with an RP-LC retention time of 888 s.

`COc1ccc(Cl)cc1S(=O)(=O)N1CCC(n2cnnc2C(C)C)CC1` yielded an RP-LC retention time of 732 s.

Take `CCNC(=O)NCCC1CCN(S(=O)(=O)c2ccc(F)cc2)CC1`: the RP-LC retention time came out at 728 s.

As for `CC1CCC(NC(=O)CN2C(=O)CCCc3cc(S(=O)(=O)N4CCC(C)CC4)ccc32)CC1` (centres undefined), the RP-LC retention time was 1040 s.

On to `COc1cccc2c1OC1(CCN(C(C)=O)CC1)N1N=C(c3cccs3)CC21` (centres undefined), for which the RP-LC retention time was 835 s.

In turn, `COc1ccc2sc(NCc3cccnc3)nc2c1` registered an RP-LC retention time of 556 s.

`O=C1NC2(CCN(C(=O)Cc3cccc(F)c3)CC2)Nc2c(Cl)cccc21` showed an RP-LC retention time of 785 s.

The molecule `O=C(Nc1cccc2nsnc12)C1CCN(S(=O)(=O)N2CCCC2)CC1` yielded an RP-LC retention time of 862 s.

Molecule `Cc1ccc(-c2noc(Cn3c(=O)n(-c4cccc(C)c4)c(=O)c4sccc43)n2)cc1` yielded an RP-LC retention time of 1070 s.

Turning to `O=C(NCCc1cccs1)C1CCN(Cc2cc3ccccc3n2Cc2cccc(Cl)c2)CC1`, the RP-LC retention time is 833 s.

`Cc1ccccc1Nc1c(-c2ccccc2O)nc2c(C)cccn12` returned an RP-LC retention time of 701 s.

Regarding `Cc1sc(-c2cc(C(F)(F)F)on2)cc1S(=O)(=O)Nc1ccccc1Cl`, the RP-LC retention time turned out to be 1180 s.

For `CC(=O)N1c2ccc(S(=O)(=O)N3CCCCCC3)cc2CC1C(=O)NCCc1ccccc1` (centres undefined), the RP-LC retention time turned out to be 918 s.

Regarding `Cc1ccc2[nH]cc(CCNC(=O)c3cc(-c4ccccn4)nc4ccccc34)c2c1`, the RP-LC retention time was found to be 902 s.

In turn, `Cc1ccc(F)c(-n2nnc(C(=O)O)c2-c2ccncc2)c1` displayed an RP-LC retention time of 654 s.

Molecule `CC(=O)N1CCc2cc(N3CC(C(=O)NCc4ccc(F)cc4)CC3=O)ccc21` (centres undefined) had an RP-LC retention time of 740 s.

`Cc1c(Cl)cccc1-n1ccn2cc(-c3ccc(F)cc3)nc2c1=O` yielded an RP-LC retention time of 896 s.

Regarding `COc1ccc(C(C)NC(=O)c2cc(NC(C)=O)cc3nc(C)ccc23)cc1` (centres undefined), the RP-LC retention time was determined as 618 s.

Regarding `O=C(CCc1nnn2c1CN(C(=O)C1CCCC1)CC2)N1CCOCC1`, the RP-LC retention time is 616 s.

`Cc1csc(-c2cc(S(=O)(=O)Nc3ccc(Cl)cc3)c(C)s2)n1` yielded an RP-LC retention time of 1060 s.

With `CCC(=O)N1CCc2c(sc3ncnc(N)c23)C1`, the RP-LC retention time is 575 s.

Consider `Cc1noc(C)c1S(=O)(=O)N1CCC(OCCOCc2ccccc2)CC1`, for which the RP-LC retention time turned out to be 1020 s.

The molecule `Cc1ccc(-c2noc(CN3N=NC4C(=O)N(c5ccc(F)c(Cl)c5)C(=O)C43)n2)cc1` (centres undefined) showed an RP-LC retention time of 1090 s.

`COc1ccc(OCc2nc(-c3ccc4c(c3)oc(=O)n4C(C)C)no2)cc1` had an RP-LC retention time of 1110 s.

In turn, `Cc1cc2c(cc1C(=O)NCc1ccc3c(c1)CCCO3)OCCCO2` showed an RP-LC retention time of 872 s.

In the case of `CN1C(=O)Cc2cc(C(=O)NC3CCN(Cc4ccccc4)CC3)ccc21`, the RP-LC retention time was 892 s.

Molecule `CN(CCCNC(=O)C1CCCN(S(=O)(=O)c2ccc3c(ccn3C)c2)C1)Cc1ccccc1` (centres undefined) returned an RP-LC retention time of 696 s.

`CCCNC(=O)Nc1ccc(NC(=O)N2CCC(C(=O)NCC)CC2)cc1` yielded an RP-LC retention time of 588 s.

In turn, `O=C(Cc1ccccc1F)N1CCC(Nc2ncnc3c2CCC3)C1` (centres undefined) gave an RP-LC retention time of 599 s.

`Cc1nc2ccc3nc(NC(=O)C4CCN(S(C)(=O)=O)CC4)sc3c2s1` showed an RP-LC retention time of 709 s.

The molecule `Cc1ccc(NS(=O)(=O)c2cc3n(c2)CCCN(C(C)C)C3=O)cc1` returned an RP-LC retention time of 778 s.

Consider `COc1cccc(-c2cn3ccn(-c4ccc5c(c4)CCC5)c(=O)c3n2)c1`, for which the RP-LC retention time came out at 914 s.

Turning to `CC(C)Cc1ccc(S(=O)(=O)N2CC(c3nc(-c4ccncc4)nn3C)C2)cc1`, the RP-LC retention time worked out at 787 s.

`OCCNCc1ccc(-c2ccc(Cl)cc2Cl)o1` yielded an RP-LC retention time of 642 s.

In turn, `Cc1oc2ccn(Cc3cccc(F)c3)c(=O)c2c1C(=O)NC1CCCCCC1` had an RP-LC retention time of 1270 s.

With `Cc1nn(C)cc1S(=O)(=O)Nc1c(C)n(C)n(-c2ccccc2)c1=O`, the RP-LC retention time was found to be 722 s.

`CC(=O)Nc1ccc(S(=O)(=O)N2CCN(c3cnn4c(C)nnc4c3)CC2)cc1` showed an RP-LC retention time of 593 s.

Turning to `COC(=O)c1c(-c2ccc(OC)cc2)csc1N`, the RP-LC retention time was found to be 822 s.

`O=C(Cn1c(C(=O)NCc2ccc(F)cc2F)cccc1=O)NC1CCCC1` had an RP-LC retention time of 868 s.

`COc1cc(NC(=O)CSc2nc3nc(C)cc(C)n3n2)cc(OC)c1` showed an RP-LC retention time of 726 s.

On to `Cn1cnc(S(=O)(=O)N2[C@H]3CC[C@@H]2c2cnc(-c4ccc(F)cc4)nc2C3)c1`, for which the RP-LC retention time was found to be 764 s.

The molecule `O=C(c1cccs1)N1CCCC(c2ccnc(Nc3cccc(F)c3)n2)C1` (centres undefined) came in with an RP-LC retention time of 957 s.

Turning to `CC1CCN(S(=O)(=O)c2ccc3c(c2)CCCC(=O)N3CC(=O)N2CCc3ccccc3C2)CC1`, the RP-LC retention time worked out at 1010 s.

In the case of `COCCN1CC(CO)C2(CCN(Cc3ccc(Cl)c(F)c3)CC2)C1` (centres undefined), the RP-LC retention time came to 555 s.

`CCCSCCCNC(=O)Cn1cnc2nc3c(cc2c1=O)CCCC3` came in with an RP-LC retention time of 739 s.

On to `CNC(=O)C1CC(=O)N(c2ccc(C)cc2)C1` (centres undefined), for which the RP-LC retention time was 626 s.

The molecule `COc1cccc(CN2CCc3nc(N4CCCC4)ncc3C2)c1` showed an RP-LC retention time of 600 s.

`COc1ccc(S(=O)(=O)N2CCC(C(=O)Nc3ncnc4c3CCC4)CC2)cc1` came in with an RP-LC retention time of 664 s.

Take `COc1ccc(-c2nc3cnccn3c2Nc2cccc(C(N)=O)c2)cc1`: the RP-LC retention time was found to be 612 s.

For `CC(C)Cc1ccc(S(=O)(=O)N2CCC(C(=O)NCc3csc(-c4ccccc4)n3)CC2)cc1`, the RP-LC retention time turned out to be 1140 s.

`Cc1sc(-c2cc(C(F)(F)F)on2)cc1S(=O)(=O)Nc1cccc(Cl)c1` showed an RP-LC retention time of 1180 s.

`O=C(Nc1nc2ccc(Cl)cc2s1)C1CCN(C(=O)C2Sc3ccccc3NC2=O)CC1` (centres undefined) gave an RP-LC retention time of 903 s.

The molecule `COc1ccc(S(=O)(=O)NCc2cccnc2-c2ccc(C)cc2)cc1Cl` had an RP-LC retention time of 743 s.

For `COC(=O)c1ccc2c(=O)n(-c3ccc(OC)c(OC)c3)c(N3CCC(C)CC3)nc2c1`, the RP-LC retention time was 1070 s.

With `CCc1ccc(CNC(=O)C2CCN(c3ncnc4c3oc3ccccc34)CC2)cc1`, the RP-LC retention time was found to be 842 s.

For `Cc1ccnc(Nc2nc(-c3ccccc3)cs2)c1`, the RP-LC retention time was 790 s.

`CCc1ccc(NC(=O)N2CCC(n3cnc4ccc(C)cc4c3=O)CC2)cc1` yielded an RP-LC retention time of 838 s.

In turn, `Cc1ccc(Cn2c(N3CCCC(C(=O)NCc4ccccc4F)C3)nc3ccsc3c2=O)cc1` (centres undefined) showed an RP-LC retention time of 981 s.

In turn, `CCCCNc1onc(-c2ccc(F)cc2)c1C(=O)OC` registered an RP-LC retention time of 1130 s.

For the molecule `Cc1ccc(NC(=O)Cn2ncc3c(c2=O)N(CC2CC2)C(=O)CS3)cc1Cl`, the RP-LC retention time worked out at 884 s.

The molecule `CCc1ccc(NC(=O)C2CCN(C(=O)c3ncn4c3COC(c3ccc(F)cc3)C4)CC2)cc1` (centres undefined) registered an RP-LC retention time of 890 s.

On to `O=C(Nc1ccc(N2CCN(C3CCCC3)C2=O)nc1)c1ccc(Br)cc1`, for which the RP-LC retention time turned out to be 876 s.

The molecule `CCN(CC)CCNC(=O)c1cn(C)nc1S(=O)(=O)N1CCN(c2cc(Cl)ccc2C)CC1` showed an RP-LC retention time of 756 s.

Molecule `CCc1ccc(OCc2nc(C)c(C(=O)Nc3nc(-c4ccc(OC)cc4)cs3)s2)cc1` came in with an RP-LC retention time of 1290 s.

`COc1cccc(C(=O)NCCN2CCN(c3ccc(Cl)cc3)CC2)c1` returned an RP-LC retention time of 745 s.

`CSc1nnc(-c2nn(C)c3c2CN(C(=O)CCc2ccccc2)CC3)n1C` yielded an RP-LC retention time of 719 s.

Regarding `CCN(C(=O)C1CCCN(c2ncnc3c2nc2n3CCCCC2)C1)c1cccc(C)c1` (centres undefined), the RP-LC retention time is 903 s.

`CCOC(=O)Oc1c(OC)cc(C(=O)O[C@@H]2C[C@@H]3CN4CCc5c([nH]c6cc(OC)ccc56)[C@H]4C[C@@H]3[C@H](C(=O)OC)[C@H]2OC)cc1OC` yielded an RP-LC retention time of 935 s.

Take `CN(C)c1cnc(-n2cc(NC(=O)NCCc3ccccc3)cn2)nc1`: the RP-LC retention time turned out to be 718 s.

Molecule `Cc1ccc(CNC(=O)N2[C@H]3CC[C@@H]2c2cncnc2C3)cc1` registered an RP-LC retention time of 735 s.

`CCCN(CC1CCOC1)S(=O)(=O)Cc1ccccc1Cl` (centres undefined) came in with an RP-LC retention time of 930 s.

`CC1CCCC(NC(=O)CCn2cnc3onc(-c4ccc(F)cc4)c3c2=O)C1C` (centres undefined) came in with an RP-LC retention time of 1050 s.

For the molecule `CCCc1nnsc1C(=O)NCCCC(=O)Nc1cccc2cccnc12`, the RP-LC retention time was determined as 791 s.

The values are drawn from the METLIN SMRT retention time set (Domingo-Almenara et al. 2019).
